The values that follow come from article PMC12298815 (Pharmaceutics, 2025).

Where two headings read alike, the source gives them in different places.

The nature of data set [1]: In vivo pharmacokinetics in rats. The following applies: rat; for AUC(0-inf): read-out: AUCinf of DT; for AUC(0-t): read-out: AUClast of DT; for half-life: read-out: T1/2 of DT (converted). As to the method:
Pharmacokinetic parameters were calculated using a non-compartmental analysis model with WinNonlin® software version 5.3 (Pharsight Corp., Mountain View, CA, USA). All quantitative data are presented as mean ± standard deviation (SD) or standard error of the mean (SEM), as indicated. Statistical analyses were performed using one-way analysis of variance (ANOVA) to assess differences among groups, followed by Tukey’s post hoc test for multiple comparisons. A p-value less than 0.05 (p < 0.05) was considered statistically significant.

Another data set has as its system rat intestinal segments. In words: In situ single-pass rat intestinal perfusion (Peff). It counts as in vivo, Sprague–Dawley rats. The following applies: low-permeability reference, 100 µg/mL in perfusion buffer. As to the method: The in situ single-pass intestinal effective permeability (Peff) of AT/DT dispersed in 0.5% DMSO and AT/DT-NE#E was evaluated in rats. Sprague–Dawley rats were selected due to their well-characterized gastrointestinal physiology, suitability for serial perfusion sampling, and widespread use in oral absorption and permeability studies. Prior to the procedure, the rats were fasted for 12–16 h with free access to water. Anesthesia was induced via intramuscular injection of a tiletamine·HCl–zolazepam mixture (1:1, w/w; 40 mg/kg). With the animals in a supine position, a midline longitudinal incision was made to expose the abdominal cavity. […]
After a 30 min equilibration period to establish steady-state conditions, outlet perfusates were collected at 15 min intervals over a period of 120 min. […] It was perfused under identical conditions, and fluorescence was measured at excitation/emission wavelengths of 494/512 nm using a multimode microplate reader (PerkinElmer).
Body temperature was maintained throughout the experiment using heated pads and a heat lamp. At the end of the study, the length and radius of each perfused intestinal segment were carefully measured without stretching. […]
The outlet concentrations of AT and DT were quantified via HPLC as described previously. […]

As a reminder, the Cmax is the maximum level reached in the sampled fluid or tissue. As usually defined, the Tmax is the time from dosing to the highest level. For orientation: bioavailability means dose-corrected exposure relative to a reference, in per cent. A high value points to good availability.

For the compound `CC(=O)O[C@@]12CO[C@@H]1C[C@H](O)[C@@]1(C)C(=O)[C@H](O)C3=C(C)[C@@H](OC(=O)[C@H](O)[C@@H](NC(=O)OC(C)(C)C)c4ccccc4)C[C@@](O)([C@@H](OC(=O)c4ccccc4)[C@H]21)C3(C)C` [DT, Docetaxel], in data set [1] (plasma, IV, DT 5 mg/kg), the peak level (Cmax) was 479 ± 45.3 ng/mL, the AUC(0-inf) amounted to 4190 ± 264 ng·h/mL, the AUC(0-t) was found to be 1450 ± 109 ng·h/mL and the half-life was 500 ± 470 min. For the same compound, in data set [1] (plasma, oral, DT 10 mg/kg), the Tmax came out at 8 h, the bioavailability came to 7.22 ± 0.924%, the AUC(0-inf) was found to be 264 ± 38.3 ng·h/mL and the AUC(0-t) stood at 210 ± 26.8 ng·h/mL. In addition, the half-life in data set [1] (plasma, oral, DT 10 mg/kg) is 520 ± 52.9 min. In data set [1] (oral, DT 10 mg/kg), the “Cmax of DT” value worked out at 21.0 ± 5.17 ng/mL.

As to `O=C1OC2(c3ccc(O)cc3Oc3cc(O)ccc32)c2ccccc21` [fluorescein], in the data set on rat intestinal segments, the Peff is reported as 0.001 ± 0.002 ×10^−4 cm/s.
